As usually defined, the IC50 is the concentration that gives 50% inhibition.

The record followed here is US6294555A, “1-[(1-Substituted-4-piperidinyl)methyl]-4-piperidine derivative, process for producing the same, medicinal compositions containing the same and intermediates of these compounds” (Dainippon Pharmaceutical Co., Ltd., priority 1998, dated 2001).

Molecules are shown by their SMILES.

T1 sequence (O70528 whole entry): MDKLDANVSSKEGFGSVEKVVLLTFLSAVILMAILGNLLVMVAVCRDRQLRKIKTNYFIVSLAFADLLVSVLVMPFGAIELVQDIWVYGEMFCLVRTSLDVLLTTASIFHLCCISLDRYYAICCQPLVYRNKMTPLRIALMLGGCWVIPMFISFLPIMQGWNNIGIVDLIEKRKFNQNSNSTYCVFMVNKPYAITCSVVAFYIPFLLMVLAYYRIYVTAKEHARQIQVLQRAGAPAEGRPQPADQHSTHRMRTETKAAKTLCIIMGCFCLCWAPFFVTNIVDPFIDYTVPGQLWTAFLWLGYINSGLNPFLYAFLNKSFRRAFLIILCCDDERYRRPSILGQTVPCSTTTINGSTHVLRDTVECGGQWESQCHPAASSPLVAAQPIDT

One assay concerns the target T1, Serotonin 4 (5-HT4) Receptors (Cavia porcellus, UniProt O70528).
T1 construct: the striatum was dissected; from tissue; host or cells: guinea pig (Std-Hartley) brain striatum, membrane fractions
As to the kind of experiment: Binding Assay on Serotonin 4 (5-HT4) Receptors ([3H]-GR113808, striatum membrane fractions). Set-up: species or system guinea pig (Std-Hartley). The note with it: 50% inhibition of specific binding of 0.1 nM [3H]-GR113808; 37° C., 30 min; test compounds are fumarates except numbers marked ** (62, 72, 74: free bases). On the procedure:
Std-Hartley guinea pigs weighing 300-400 g were decapitated, and the brain thereof was immediately taken out, and the striatum was dissected. To the tissue thus obtained was added 15-times volume of Hepes buffer (50 mM, pH7.4, 4° C.), homogenized in a Teflon homogenizer, and centrifuged at 48,000×g at 4° C. for 15 minutes. The pellet was suspended in the same Hepes buffer in a volume of 1 ml per 30 mg of the wet tissues to give receptor membrane fractions.
The reaction was terminated by rapid vacuum filtration and washing (3×4 ml) with ice-cold 50 mM Tris-HCl buffer (pH 7.7) through Whatman GF/B filter paper using a Brandel cell harvester. Prior to the filtration, the filter to be used was presoaked in a 0.1% solution of polyethylenimine for one hour. The radioactivity on the filter was determined with by ACS-II scintillation cocktail by a liquid scintillation counter.
As to `COc1cc(N)c(Br)cc1C(=O)NC1CCN(CC2CCN(C(=O)N3CCCC3)CC2)CC1` [Example 34, 4-amino-5-bromo-2-methoxy-N-[1-[1-(1-pyrrolidinecarbonyl)-4-piperidinylmethyl]-4-piperidinyl]benzamide], the IC50 worked out at 8.9 nM.
`CCN(C)C(=O)N1CCC(CN2CCC(NC(=O)c3cc(Cl)c(N)cc3OC)CC2)CC1` [Example 4, 4-amino-5-chloro-N-[1-[1-(N-ethyl-N-methylcarbamoyl)-4-piperidinylmethyl]-4-piperidinyl]-2-methoxybenzamide] came in with an IC50 of 11.9 nM.
`CC(C)Oc1cc(N)c(Cl)cc1C(=O)NC1CCN(CC2CCN(C(=O)N(C)C)CC2)CC1` [Example 30, 4-amino-5-chloro-N-[1-(1-dimethylcarbamoyl-4-piperidinylmethyl)-4-piperidinyl]-2-isopropoxybenzamide] displayed an IC50 of 4.3 nM.
With `CCC(=O)CN1CCC(CN2CCC(NC(=O)c3cc(Cl)c(N)cc3OC)CC2)CC1` [Example 86], the IC50 stood at 8.3 nM.
On the same count and under the same terms, in the case of `COc1cc(N)c(Cl)cc1C(=O)NC1CCN(CC2CCN(C(=O)c3ccc(Cl)cc3)CC2)CC1` [Example 73] it was 4.2 nM; in that of `COc1cc(N)c(Cl)cc1C(=O)NC1CCN(CC2CCN(CCCC(C)=O)CC2)CC1` [Example 88], 7.2 nM.
`COc1cc(N)c(Cl)cc1C(=O)NC1CCN(CC2CCN(C(=O)NC3CCCCCC3)CC2)CC1` [Example 51] displayed an IC50 of 1.9 nM.
Still for that read-out and setting: in the case of `COc1cc(N)c(Cl)cc1C(=O)NC1CCN(CC2CCN(C(N)=O)CC2)CC1` [Example 53, 4-amino-N-[1-(1-carbamoyl-4-piperidinylmethyl)-4-piperidinyl]-5-chloro-2-methoxybenzamide] it was 9.8 nM.
Take `COc1cc(N)c(Cl)cc1C(=O)NC1CCN(CC2CCN(C(=O)c3cc(Cl)c(N)cc3OC)CC2)CC1` [Example 62]: the IC50 was 1.4 nM.
Still for that read-out and setting: with `CCC(=O)CN1CCC(CN2CCC(NC(=O)c3cc(Cl)c(N)c4c3OCC4)CC2)CC1` [Example 99, 4-amino-N-[1-[1-(2-butanon-1-yl)-4-piperidinylmethyl]-4-piperidinyl]-5-chloro-2,3-dihydrobenzo[b]furan-7-carboxamide] the figure was 3.9 nM; with `CCCN(C)C(=O)N1CCC(CN2CCC(NC(=O)c3cc(Cl)c(N)cc3OC)CC2)CC1` [Example 5], 7.6 nM; with `COc1cc(N)c(Cl)cc1C(=O)NC1CCN(CC2CCN(C(=O)c3ccc(C)cc3)CC2)CC1` [Example 61], 4.6 nM.
The same measure, in the same setting: in the case of `CCOc1cc(N)c(Cl)cc1C(=O)NC1CCN(CC2CCN(C(=O)N(CC)CC)CC2)CC1` [Example 27, 4-amino-5-chloro-N-[1-(1-diethylcarbamoyl-4-piperidinylmethyl)-4-piperidinyl]-2-ethoxybenzamide] it was 4.4 nM.
`CCOC(=O)CCCN1CCC(CN2CCC(NC(=O)c3cc(Cl)c(N)cc3OC)CC2)CC1` [Example 92] gave an IC50 of 4.1 nM.
As to `COc1cc(N)c(Cl)cc1C(=O)NC1CCN(CC2CCN(C(=O)Nc3ccccc3)CC2)CC1` [Example 37, 4-amino-5-chloro-2-methoxy-N-[1-(1-phenylcarbamoyl-4-piperidinylmethyl)-4-piperidinyl]benzamide], the IC50 was found to be 1.1 nM.
The same measure, in the same setting: in the case of `CCC(=O)CCN1CCC(CN2CCC(NC(=O)c3cc(Cl)c(N)cc3OC)CC2)CC1` [Example 89] it was 6.5 nM.
Regarding `COc1cc(N)c(Cl)cc1C(=O)NC1CCN(CC2CCN(C(=O)Nc3ccc(C)cc3)CC2)CC1` [Example 40], the IC50 was determined as 1.7 nM.
`CCCNC(=O)N1CCC(CN2CCC(NC(=O)c3cc(Cl)c(N)cc3OC)CC2)CC1` [Example 42] displayed an IC50 of 6.4 nM.
For `COc1cc(N)c(Cl)cc1C(=O)NC1CCN(CC2CCN(CC(C)=O)CC2)CC1` [Example 85], the half-maximal inhibitory concentration (IC50) was found to be 18.2 nM.
On to `CCN(CC)C(=S)N1CCC(CN2CCC(NC(=O)c3cc(Cl)c(N)cc3OC)CC2)CC1` [Example 11], for which the IC50 amounted to 6.8 nM.
Same read-out and setting: in the case of `COc1cc(N)c(Cl)cc1C(=O)NC1CCN(CC2CCN(C(=O)c3cc(OC)c(OC)c(OC)c3)CC2)CC1` [Example 74] it was 9 nM; in that of `COCC(=O)N1CCC(CN2CCC(NC(=O)c3cc(Cl)c(N)cc3OC)CC2)CC1` [Example 63], 20.7 nM; in that of `COc1cc(N)c(Cl)cc1C(=O)NC1CCN(CC2CCN(CC(=O)C(C)(C)C)CC2)CC1` [Example 87], 11.9 nM.
On the same count and under the same terms, in the case of `COc1cc(N)c(Cl)cc1C(=O)NC1CCN(CC2CCN(C(=O)N(C)c3ccccc3)CC2)CC1` [Example 8, 4-amino-5-chloro-2-methoxy-N-[1-[1-(N-methyl-N-phenylcarbamoyl)-4-piperidinylmethyl]-4-piperidinyl]benzamide] it was 6.3 nM; in that of `COc1ccc(C(=O)N2CCC(CN3CCC(NC(=O)c4cc(Cl)c(N)cc4OC)CC3)CC2)cc1` [Example 60], 3.9 nM; in that of `CCN(CC)C(=O)N1CCC(CN2CCC(NC(=O)c3cc(Cl)c(N)cc3OC)CC2)CC1` [Example 2], 11.9 nM.
`COc1cc(N)c(Cl)cc1C(=O)NC1CCN(CC2CCN(S(=O)(=O)N(C)C)CC2)CC1` [Example 16]: the IC50 came to 14.2 nM.
For the molecule `COc1cc(N)c(Cl)cc1C(=O)NC1CCN(CC2CCN(C(=O)c3ccccc3)CC2)CC1` [Example 72, 4-amino-N-[1-(1-benzoyl-4-piperidinylmethyl)-4-piperidinyl]-5-chloro-2-methoxybenzamide], the IC50 was 6.8 nM.
On the same count and under the same terms, with `COc1cc(N)c(Cl)cc1C(=O)NC1CCN(CC2CCN(C(=O)Nc3ccc(Cl)cc3)CC2)CC1` [Example 38] the figure was 1.6 nM.
Still for that read-out and setting: with `COc1cc(N)c(Cl)cc1C(=O)NC1CCN(CC2CCN(C(=O)N3CCOCC3)CC2)CC1` [Example 13] the figure was 19.1 nM; with `CCOC(=O)CCCN1CCC(CN2CCC(NC(=O)c3cc(Cl)c(N)c4c3OCC4)CC2)CC1` [Example 100, 4-amino-5-chloro-N-[1-[1-(3-ethoxycarbonylpropyl)-4-piperidinylmethyl]-4-piperidinyl]-2,3-dihydrobenzo[b]furan-7-carboxamide], 1 nM; with `COc1cc(N)c(Cl)cc1C(=O)NC1CCN(CC2CCN(C(=O)NCc3ccccc3)CC2)CC1` [Example 47], 1.6 nM.
Same read-out and setting: with `COc1cc(N)c(Cl)cc1C(=O)NC1CCN(CC2CCN(C(C)C(C)=O)CC2)CC1` (centres unmarked) [Example 84, 4-amino-N-[1-[1-(2-butanon-3-yl)-4-piperidinylmethyl]-4-piperidinyl]-5-chloro-2-methoxybenzamide] the figure was 14.2 nM.
`COc1cc(N)c(Cl)cc1C(=O)NC1CCN(CC2CCN(C(=O)N(C(C)C)C(C)C)CC2)CC1` [Example 3] yielded a half-inhibitory concentration (IC50) of 15.5 nM.
`COc1cc(N)c(Cl)cc1C(=O)NC1CCN(CC2CCN(C(=O)NC3CCCC3)CC2)CC1` [Example 49] displayed a half-maximal inhibitory concentration (IC50) of 4.4 nM.
As to `COC(=O)CCCC(=O)N1CCC(CN2CCC(NC(=O)c3cc(Cl)c(N)cc3OC)CC2)CC1` [Example 69], the IC50 came out at 18 nM.
Consider `CCCCC(C(=O)OCC)N1CCC(CN2CCC(NC(=O)c3cc(Cl)c(N)cc3OC)CC2)CC1` (centres unmarked) [Example 98], for which the 50% inhibitory concentration (IC50) was found to be 12.5 nM.
On the same count and under the same terms, in the case of `COc1ccc(NC(=O)N2CCC(CN3CCC(NC(=O)c4cc(Cl)c(N)cc4OC)CC3)CC2)cc1` [Example 39] it was 2.3 nM; in that of `CCOc1cc(N)c(Cl)cc1C(=O)NC1CCN(CC2CCN(C(=S)N(C)C)CC2)CC1` [Example 33, 4-Amino-5-chloro-N-[1-(1-dimethylthiocarbamoyl-4-piperidinylmethyl)-4-piperidinyl]-2-ethoxybenzamide], 2.3 nM.

The next assay relates to Mice of Std-ddY strain (evacuation). As to the kind of experiment: Assay on Evacuation in Mice (fecal pellets, oral). The format is in vivo, mouse (Std-ddY, male). Also on record: key: -: Inactive; +: Moderately stimulated (P<0.05); ++: Markedly stimulated (p<0.01). Particulars: 1 mg/kg oral; fecal pellets at 30, 60 and 120 minutes; Dunnett's test; fumarates except numbers marked ** (25, 86: free bases). On the procedure: Male mice of Std-ddY strain weighing 25-30 g were used. Free access to food and water was allowed up to the beginning of the procedure.
The mice (each group: five mice) were placed in a mesh bottom cage for fasting, and they were allowed for acclimation to new environment for about one hour prior to the start of the experiment. A test compound, which was previously suspended in the 0.5% tragacanth solution, was administered orally to the mice at a dose of 1 mg/kg. The fecal pellets were counted and collected at 30, 60 and 120 minutes after the treatment of a test compound, and weighed.
The statistical judgment of efficacy was carried out between the control group and the treated group, and determined by Dunnett's test.
Turning to `COc1cc(N)c(Br)cc1C(=O)NC1CCN(CC2CCN(C(=O)N3CCCC3)CC2)CC1` [Example 34, 4-amino-5-bromo-2-methoxy-N-[1-[1-(1-pyrrolidinecarbonyl)-4-piperidinylmethyl]-4-piperidinyl]benzamide], the “Effect (evacuation)” value is on record as “++”.
On to `CCN(C)C(=O)N1CCC(CN2CCC(NC(=O)c3cc(Cl)c(N)cc3OC)CC2)CC1` [Example 4, 4-amino-5-chloro-N-[1-[1-(N-ethyl-N-methylcarbamoyl)-4-piperidinylmethyl]-4-piperidinyl]-2-methoxybenzamide], for which the “Effect (evacuation)” value is “++”.
Take `CC(C)Oc1cc(N)c(Cl)cc1C(=O)NC1CCN(CC2CCN(C(=O)N(C)C)CC2)CC1` [Example 30, 4-amino-5-chloro-N-[1-(1-dimethylcarbamoyl-4-piperidinylmethyl)-4-piperidinyl]-2-isopropoxybenzamide]: the “Effect (evacuation)” value was “++”.
Still for that read-out and setting: with `CCC(=O)CN1CCC(CN2CCC(NC(=O)c3cc(Cl)c(N)cc3OC)CC2)CC1` [Example 86] the entry was “++”; with `CCOC(=O)N1CCC(CN2CCC(NC(=O)c3cc(Cl)c(N)cc3OC)CC2)CC1` [Example 77], “++”; with `CCOC(=O)CN1CCC(CN2CCC(NC(=O)c3cc(Cl)c(N)cc3OC)CC2)CC1` [Example 90], “+”.
On the same count and under the same terms, with `CCOc1cc(N)c(Cl)cc1C(=O)NC1CCN(CC2CCN(C(=O)N(CC)CC)CC2)CC1` [Example 27, 4-amino-5-chloro-N-[1-(1-diethylcarbamoyl-4-piperidinylmethyl)-4-piperidinyl]-2-ethoxybenzamide] the entry was “++”.
Take `COc1cc(N)c(Cl)cc1C(=O)NC1CCN(CC2CCN(C(=O)Nc3ccccc3)CC2)CC1` [Example 37, 4-amino-5-chloro-2-methoxy-N-[1-(1-phenylcarbamoyl-4-piperidinylmethyl)-4-piperidinyl]benzamide]: the “Effect (evacuation)” value is on record as “++”.
Still for that read-out and setting: with `COc1cc(N)c(Cl)cc1C(=O)NC1CCN(CC2CCN(C(=O)N(C)c3ccccc3)CC2)CC1` [Example 8, 4-amino-5-chloro-2-methoxy-N-[1-[1-(N-methyl-N-phenylcarbamoyl)-4-piperidinylmethyl]-4-piperidinyl]benzamide] the entry was “++”.
On the same count and under the same terms, in the case of `CCN(CC)C(=O)N1CCC(CN2CCC(NC(=O)c3cc(Cl)c(N)cc3OC)CC2)CC1` [Example 2] it was “+”.
Same read-out and setting: in the case of `COC(=O)N1CCC(CN2CCC(NC(=O)c3cc(Cl)c(N)cc3OC)CC2)CC1` [Example 76] it was “++”.
As to `COCCC(=O)N1CCC(CN2CCC(NC(=O)c3cc(Cl)c(N)cc3OC)CC2)CC1` [Example 64], the “Effect (evacuation)” value is given as “+”.
Same read-out and setting: with `COc1cc(N)c(Cl)cc1C(=O)NC1CCN(CC2CCN(C=O)CC2)CC1` [Example 79, 4-amino-5-chloro-N-[1-(1-formyl-4-piperidinylmethyl) -4-piperidinyl]-2-methoxybenzamide] the entry was “+”; with `COc1cc(N)c(Cl)cc1C(=O)NC1CCN(CC2CCN(C(C)=O)CC2)CC1` [Example 75], “++”.
